Assay results taken from US20100173879A1, “USE OF A COMPOUND ANTAGONIST TO THE NK2 RECEPTORS OF NEUROKININ A FOR THE PREPARATION OF DRUGS USEFUL FOR PREVENTING AND TREATING OF SEXUAL DYSFUNCTION” (SANOFI-AVENTIS, priority 2007, published 2010).

Tested on: male or female adult patients, exhibiting a major depressive disorder
Assay: Eight-week multicentre double-blind clinical studies versus placebo, CSFQ questionnaire (changes in sexual functioning questionnaire)
Format: in vivo, human
Conditions: 100 mg per day orally for eight weeks
Procedure: The patients received, orally, a dose of 100 mg per day of saredutant for eight weeks, in the form of gel capsules (Example 2). he effects of saredutant compared with the placebo were evaluated using the CSFQ questionnaire (changes in sexual functioning questionnaire) comprising 14 items according to Clayton A H et al., Psychopharmacol. Bull., 1997, 33, 731-745. It is known that antidepressants have a deleterious effect on the sexual activity of patients (Montejo-Gonzales A L et al.: J. Sex Marital Ther., 1997, 23(3), 176-194). […] The table below indicates, for each group treated, the mean variation relative to the base value before treatment of the total CSFQ score and its variability between parentheses obtained over the analysis of all the studies. An increase in the total CSFQ score corresponds to an improvement in sexual function.

## CC(=O)NC1(c2ccccc2)CCN(CC[C@H](CN(C)C(=O)c2ccccc2)c2ccc(Cl)c(Cl)c2)CC1 [Saredutant, (S)-(−)-N-[4-(4-acetamido-4-phenylpiperidin-1-yl)-2-(3,4-dichlorophenyl)butyl]-N-methylbenzamide]
Versus placebo
  effect on the dysfunctions reduced sexual desire and sexual arousal disorders: beneficial effect
p<0.05
  improvement in the total CSFQ score between the last visit (56th day) and the first visit, in comparison with the placebo group: significant improvement
All patients, n = 553, analysis of all the studies, increase = improvement in sexual function, *p < 0.05 versus placebo (ANCOVA)
  Total CSFQ score, mean variation relative to the base value before treatment (variability between parentheses): 2.23 (0.64)*
